Legend:
[1] = tested on: spontaneous inflammatory bowel disease; assay: Spontaneous inflammatory bowel disease in γc knock out mice (Example 13); type: in vivo; details: −/Y mice, 20 μg/h twice a week, 5 times in total; for survival rate, Day 31 / survival rate, Day 45: non-administration 33%; for occurrence rate of intestinal inflammation, Day 14 / occurrence rate of intestinal inflammation, Day 31: non-administration 83%; for occurrence rate of intestinal inflammation, Day 45: non-administration 100%
Description: In wild-type normal littermates of γc knock out mice (genetic phenotypes +/+, +/Y), no inflammatory bowel disease is observed at all under ordinary SPF breeding conditions. However, in γc knock out mice (genetic phenotypes, −/−, −/+ and −/Y), inflammatory bowel diseases occur very of ten. With respect to homo-knock out mice with −/− and −/Y phenotypes, approximately 70% thereof are spontaneously accompanied with inflammatory bowel diseases within 4 months. Also with respect to mice with +/− phenotype, approximately 60% thereof are spontaneously accompanied therewith within 6 months. That is, intestinal shortening, bloody stool, diarrhea, loose passage, anal prolapse and colonal hypertrophy are observed.
On the basis of the findings mentioned above, the effect of inhibiting spontaneous progression of inflammatory bowel disease in γc knock out mice was examined with respect to human Crohn disease and ulcerative colitis models. Saline, (NAC-OMe)2 or (NAC)2 (20 μg/h) was administered twice a week, 5 times in total, to each of 6 γc knock out male mice with […] and 6 γc knock out male mice with −/Y genotype which were inclined to have oxidative MΦ. It was examined whether or not the intestinal inflammation spontaneously progressed in −/Y was inhibited. In case of (NAC-OMe)2, on Day 14 of the administration, the occurrence rate of the non-administration −/Y group and the administration −/Y group was 83% to 25%; on Day 31, the occurrence rate was 83% to 25%, and the survival rate was 33% to 100%; and on Day 45, the occurrence rate was 100% to 25%, and the survival rate was 33% to 75%. In case of (NAC)2, it was 30, 40, 100, 40, 75% respectively.

[2] = tested on: adjuvant-induced arthritis; assay: Adjuvant-induced arthritis (AA) in rats, joint swelling (Examples 18 and 19); type: in vivo, Lewis rats
Procedure: Adjuvant-induced arthritis was triggered in Lewis rats in a conventional manner; and the effects of chemical agents were examined in the animals. Adjuvant-induced arthritis is well known as an experimental arthritis inducible in rats [Taurog et al., Meth. Enzymol. 162, 339-355 (1988)]. […] An adjuvant is administered at 1 mg/0.1 ml per rate at a site of caudal root. The edema reaches its peak about 2 to 3 weeks after the administration of the adjuvant. The edema is triggered by inflammatory infiltration of monocytes. Swollen joints are measured with a micrometer every day; comparing the diameters of the joints prior to and after adjuvant administration and after initiation of the treatment with chemical agents with the diameters of the joints in the control group, the effects of the chemical agents were expressed as the ratio in % of joint swelling in the experimental groups to joint swelling in the control group. The effects were determined on day 15 after adjuvant administration. The chemical agents were given, starting the day next to the day of adjuvant administration, and every 3 days thereafter.
A single dose is 1 mg/kg for (NAC)2 and (NAC-OMe)2; 100 mg/kg for NAC; and 0.1 mg/kg for lentinan.
Adjuvant-induced arthritis was induced in Lewis rats in a conventional manner. In the same manner as in Example 11, the effects of chemical agents were examined in these rats. The conditions were the same as described above.

[3] = tested on: spontaneous onset of insulin-dependent diabetes mellitus; assay: Onset of diabetes mellitus in NOD mice dosed at age 9 to 11 weeks (Example 25); type: in vivo; details: nine times
Description: NOD mice purchased from Nippon Clair, Co. were naturally mated together. Among the off spring mice, a colony of NOD mice with a high frequency of the spontaneous onset of insulin-dependent diabetes mellitus was established. Female NOD mice from the colony were used for the present experiment. Chemical agents were orally or intraperitoneally administered to the NOD mice aged 9 to 11 weeks three times per week, in total nine times; and based on the test results of urine glucose, positive or negative, the onset of diabetes mellitus was followed once per week. Urine glucose was detected, using Uropaper (BM Test Glucose 5000, manufactured by Yamanouchi Pharmaceuticals, Co. Ltd.). The onset was judged on week 22; the doses were the same as in Example 24.

[4] = tested on: insulin-non-dependent diabetes mellitus; assay: Blood sugar level in db/db mice (Example 26); type: in vivo; details: intraperitoneal, age 4 to 9 weeks, three times per week; at satiation; saline 100
Description: db/db mice purchased from Nippon Clair, Co. were naturally mated together. Among the off spring mice, a colony of db/db mice with a high frequency of the spontaneous onset of insulin-non-dependent diabetes mellitus was established. Male db/db mice from the colony were used for the present experiment. Chemical agents were intraperitoneally administered to the db/db mice aged 4 to 9 weeks three times per week, in total 18 times; and based on the level of blood sugar in the mice at satiation, the effects of the chemical agents on the improvement of the diseased conditions of insulin-non-dependent diabetes mellitus were followed once per week. The doses were the same as in Example 24.

[5] = Table 3, day 15 after adjuvant, every 3 days, single dose 1 mg/kg (NAC)2 and (NAC-OMe)2, 100 mg/kg NAC, 0.1 mg/kg lentinan

Structure (SMILES): CC(=O)N[C@@H](CSSC[C@H](NC(C)=O)C(=O)O)C(=O)O [(NAC)2, N,N′-diacetylcystine]
- survival rate, Day 31 [1]: 100%
- survival rate, Day 45 [1]: 75%
- occurrence rate of intestinal inflammation, Day 14 [1]: 30%
- occurrence rate of intestinal inflammation, Day 31 [1]: 40%
- occurrence rate of intestinal inflammation, Day 45 [1]: 40%
- Ratio in % of joint swelling in experimental groups to joint swelling in control group [2, 5]: 96%
- Ratio in % of joint swelling in experimental groups to joint swelling in control group ([2]; Table 4, intravenous): 95%
- Frequency (%) of onset of diabetes mellitus ([3]; route not given, judged on week 22, saline 67): 60%
- Relative ratio % of blood sugar level, 6 weeks [4]: 95%
- Relative ratio % of blood sugar level, 7 weeks [4]: 100%
- Relative ratio % of blood sugar level, 8 weeks [4]: 98%

Structure (SMILES): COC(=O)[C@H](CSSC[C@H](NC(C)=O)C(=O)OC)NC(C)=O [(NAC-OMe)2, N,N′-diacetylcystine dimethyl ester]
- survival rate, Day 31 [1]: 100%
- survival rate, Day 45 [1]: 75%
- occurrence rate of intestinal inflammation, Day 14 [1]: 25%
- occurrence rate of intestinal inflammation, Day 31 [1]: 25%
- occurrence rate of intestinal inflammation, Day 45 [1]: 25%
- Ratio in % of joint swelling in experimental groups to joint swelling in control group [2, 5]: 50%
- Ratio in % of joint swelling in experimental groups to joint swelling in control group ([2]; Table 4, intravenous): 42%
- Frequency (%) of onset of diabetes mellitus ([3]; intraperitoneal, judged on week 22, doses as in Example 24, saline 67): 11%
- Relative ratio % of blood sugar level, 6 weeks [4]: 94%
- Relative ratio % of blood sugar level, 7 weeks [4]: 92%
- Relative ratio % of blood sugar level, 8 weeks [4]: 93%

Structure (SMILES): CC(=O)N[C@@H](CS)C(=O)O [NAC, N-acetylcysteine, reference compound]
- Ratio in % of joint swelling in experimental groups to joint swelling in control group [2, 5]: 132%
- Ratio in % of joint swelling in experimental groups to joint swelling in control group ([2]; Table 4, oral): 142%
- Frequency (%) of onset of diabetes mellitus ([3]; oral, judged on week 22, doses as in Example 24, saline 67): 60%

Reference: patent publication US7378387B2, “Method of suppressing immune response by reducing intracellular content of glutathione in macrophages and monocytes” (Ajinomoto Co., Inc., priority 1997, dated 2008)
